Assay results from the NIST ThermoML archive (doi:10.1016/j.jct.2015.03.001).

Tests used:
[1] = refractive index (Na D-line) (dimensionless); xn = mol fraction of the nth substance listed; settings: 99 kPa, Liquid, Abbe refractometer
[2] = relative permittivity at various frequencies (dimensionless); xn = mol fraction of the nth substance listed; settings: 99 kPa, Liquid, Frequency=2 MHz, Parallel plate capacitor

CC(C)(C)Cl [2-chloro-2-methylpropane] + CCCCCC
Settings | refractive index, 283.15 K | refractive index, 298.15 K | refractive index, 313.15 K | relative permittivity, 283.15 K | relative permittivity, 298.15 K | relative permittivity, 313.15 K
[1], x2 = 0 | 1.39115 | 1.38225 | 1.37312 | – | – | –
[1], x2 = 0.048 | 1.39005 | 1.38118 | 1.37209 | – | – | –
[1], x2 = 0.0978 | 1.38908 | 1.38022 | 1.37118 | – | – | –
[1], x2 = 0.1998 | 1.38741 | 1.3786 | 1.36961 | – | – | –
[1], x2 = 0.3018 | 1.38592 | 1.37722 | 1.36829 | – | – | –
[1], x2 = 0.405 | 1.38463 | 1.37598 | 1.36716 | – | – | –
[1], x2 = 0.5059 | 1.38354 | 1.37491 | 1.36616 | – | – | –
[1], x2 = 0.6043 | 1.38258 | 1.37407 | 1.3654 | – | – | –
[1], x2 = 0.7077 | 1.38181 | 1.37335 | 1.36477 | – | – | –
[1], x2 = 0.806 | 1.38122 | 1.37282 | 1.36433 | – | – | –
[1], x2 = 0.9095 | 1.38081 | 1.37249 | 1.36409 | – | – | –
[1], x2 = 0.95 | 1.38066 | 1.37236 | 1.36401 | – | – | –
[2], x2 = 0 | – | – | – | 10.429 | 9.67 | 8.952
[2], x2 = 0.0467 | – | – | – | 9.841 | 9.132 | 8.468
[2], x2 = 0.099 | – | – | – | 9.191 | 8.543 | 7.946
[2], x2 = 0.2084 | – | – | – | 7.892 | 7.37 | 6.883
[2], x2 = 0.2972 | – | – | – | 6.892 | 6.468 | 6.073
[2], x2 = 0.399 | – | – | – | 5.897 | 5.552 | 5.239
[2], x2 = 0.4982 | – | – | – | 5.016 | 4.749 | 4.514
[2], x2 = 0.6015 | – | – | – | 4.212 | 4.01 | 3.842
[2], x2 = 0.7009 | – | – | – | 3.543 | 3.398 | 3.283
[2], x2 = 0.8046 | – | – | – | 2.928 | 2.833 | 2.749
[2], x2 = 0.8999 | – | – | – | 2.417 | 2.362 | 2.308
[2], x2 = 0.9502 | – | – | – | 2.149 | 2.116 | 2.08

CCC(C)Cl (centres undefined) [2-chlorobutane] + CCCCCC
Settings | refractive index, 283.15 K | refractive index, 298.15 K | refractive index, 313.15 K | relative permittivity, 283.15 K | relative permittivity, 298.15 K | relative permittivity, 313.15 K
[1], x2 = 0 | 1.40226 | 1.39404 | 1.38562 | – | – | –
[1], x2 = 0.0471 | 1.40083 | 1.3926 | 1.38418 | – | – | –
[1], x2 = 0.0973 | 1.39939 | 1.39115 | 1.38274 | – | – | –
[1], x2 = 0.1986 | 1.39658 | 1.38833 | 1.37993 | – | – | –
[1], x2 = 0.293 | 1.39412 | 1.38584 | 1.37742 | – | – | –
[1], x2 = 0.4036 | 1.39142 | 1.38315 | 1.3747 | – | – | –
[1], x2 = 0.5099 | 1.38903 | 1.38071 | 1.37229 | – | – | –
[1], x2 = 0.6202 | 1.38673 | 1.37842 | 1.37002 | – | – | –
[1], x2 = 0.708 | 1.38508 | 1.37678 | 1.3684 | – | – | –
[1], x2 = 0.8068 | 1.38338 | 1.3751 | 1.36674 | – | – | –
[1], x2 = 0.908 | 1.38183 | 1.37356 | 1.36523 | – | – | –
[1], x2 = 0.9555 | 1.38113 | 1.37286 | 1.36454 | – | – | –
[2], x2 = 0 | – | – | – | 9.323 | 8.652 | 8.07
[2], x2 = 0.0536 | – | – | – | 8.752 | 8.128 | 7.593
[2], x2 = 0.0967 | – | – | – | 8.282 | 7.716 | 7.222
[2], x2 = 0.1993 | – | – | – | 7.216 | 6.76 | 6.345
[2], x2 = 0.2995 | – | – | – | 6.242 | 5.881 | 5.556
[2], x2 = 0.3993 | – | – | – | 5.389 | 5.093 | 4.827
[2], x2 = 0.4997 | – | – | – | 4.625 | 4.39 | 4.182
[2], x2 = 0.5974 | – | – | – | 3.963 | 3.786 | 3.626
[2], x2 = 0.7026 | – | – | – | 3.366 | 3.225 | 3.106
[2], x2 = 0.8044 | – | – | – | 2.811 | 2.72 | 2.642
[2], x2 = 0.9006 | – | – | – | 2.349 | 2.296 | 2.253
[2], x2 = 0.9472 | – | – | – | 2.137 | 2.105 | 2.07
